Data from the supplement of paper PMC11451515.

Columns and labels:
Details in all cases: 48 h
P12-Ichikawa [1] = test: cell viability relative to DMSO control; higher = less cytotoxic
Method in brief: (§1)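 Viability values are per-plate percentages of DMSO wells, with background from cell-free wells. Library compounds in DMSO were pin-dosed, in an 11-point threefold series from 47 μM to 0.79 nM, onto NOMO1 or SEM (500 cells/well) or P12-Ichikawa (1000 cells/well) leukemia cells in 1536-well plates (5 μl). Those cells had been adapted for at least four passages in each medium, and CellTiter-Glo One luminescence was read after 48 h at 37°C.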

SEM cells [2] = test: as above
Method in brief: as §1

P12-Ichikawa [3] = test: AUC of viability dose-response curve (% viability x log10 dose units); higher = less sensitive
Method in brief: (§2)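 Viability of medium-adapted leukemia cells was measured by CellTiter-Glo One luminescence after 48 h at 37°C with library compounds in DMSO. Doses were 11 threefold steps from 47 μM to 0.79 nM, in 1536-well plates at 500 or 1000 cells/well. Signals were normalised per plate to DMSO and cell-free wells and fitted with a four-parameter log-logistic model on log10 dose. Area under the curve was integrated by trapezoidal rule, with curves exceeding full viability scaled and failed quality-control curves removed.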

SEM cells [4] = test: as above
Method in brief: as §2

NOMO1 = test: as above
Method in brief: as §2

CC(C)OC(=O)CCC/C=C\C[C@@H]1[C@@H](/C=C/[C@@H](O)COc2cccc(C(F)(F)F)c2)[C@H](O)C[C@@H]1O
cell viability [%]
Details	P12-Ichikawa [1]	SEM cells [2]
HPLM + 10% dialyzed FBS, 0.000781 µM	109	65.4
HPLM + 10% dialyzed FBS, 0.00234 µM	120	124
HPLM + 10% dialyzed FBS, 0.00702 µM	122	115
HPLM + 10% dialyzed FBS, 0.0211 µM	127	118
HPLM + 10% dialyzed FBS, 0.0632 µM	115	118
HPLM + 10% dialyzed FBS, 0.19 µM	119	118
HPLM + 10% dialyzed FBS, 0.569 µM	118	121
HPLM + 10% dialyzed FBS, 1.71 µM	115	122
HPLM + 10% dialyzed FBS, 5.12 µM	112	106
HPLM + 10% dialyzed FBS, 15.4 µM	104	102
HPLM + 10% dialyzed FBS, 46.1 µM	65.1	31.7
RPMI 5 mM glucose + 10% dialyzed FBS, 0.000781 µM	112	–
RPMI 5 mM glucose + 10% dialyzed FBS, 0.00234 µM	126	–
RPMI 5 mM glucose + 10% dialyzed FBS, 0.00702 µM	120	–
RPMI 5 mM glucose + 10% dialyzed FBS, 0.0211 µM	121	–
RPMI 5 mM glucose + 10% dialyzed FBS, 0.0632 µM	127	–
RPMI 5 mM glucose + 10% dialyzed FBS, 0.19 µM	123	–
RPMI 5 mM glucose + 10% dialyzed FBS, 0.569 µM	124	–
RPMI 5 mM glucose + 10% dialyzed FBS, 1.71 µM	119	–
RPMI 5 mM glucose + 10% dialyzed FBS, 5.12 µM	110	–
RPMI 5 mM glucose + 10% dialyzed FBS, 15.4 µM	92.7	–
RPMI 5 mM glucose + 10% dialyzed FBS, 46.1 µM	46.1	–

AUC of viability dose-response curve
Details	NOMO1	P12-Ichikawa [3]	SEM cells [4]
HPLM + 10% dialyzed FBS	443	459	455
RPMI 5 mM glucose + 10% FBS	448	439	452
RPMI 5 mM glucose + 10% dialyzed FBS	450	446	434

O=c1cc(O)c(Cl)c[nH]1
AUC of viability dose-response curve
Details	NOMO1	P12-Ichikawa [3]	SEM cells [4]
HPLM + 10% dialyzed FBS	378	391	455
RPMI 5 mM glucose + 10% FBS	396	395	416
RPMI 5 mM glucose + 10% dialyzed FBS	394	417	453

C\C1=N\N=C(\C2=CC=C(N)C=C2)C3=CC4=C(OCO4)C=C3C1
SEM cells [2], HPLM + 10% dialyzed FBS
Details	cell viability [%]
0.000781 µM	129
0.00234 µM	115
0.00702 µM	122
0.0211 µM	136
0.0632 µM	126
0.19 µM	123
0.569 µM	131
1.71 µM	131
5.12 µM	150
15.4 µM	138
46.1 µM	107

AUC of viability dose-response curve
Details	NOMO1	P12-Ichikawa [3]	SEM cells [4]
HPLM + 10% dialyzed FBS	471	469	467
RPMI 5 mM glucose + 10% FBS	471	465	470
RPMI 5 mM glucose + 10% dialyzed FBS	464	465	464

CNC(=O)c1ccc(Nc2ncc(C(F)(F)F)c(NCc3nccnc3N(C)[S+](C)(=O)[O-])n2)cc1
cell viability [%], HPLM + 10% dialyzed FBS
Details	P12-Ichikawa [1]	SEM cells [2]
0.000781 µM	120	115
0.00234 µM	127	105
0.00702 µM	117	124
0.0211 µM	118	127
0.0632 µM	124	125
0.19 µM	114	113
0.569 µM	122	99.8
1.71 µM	125	63.2
5.12 µM	109	23.5
15.4 µM	89.4	16.7
46.1 µM	102	20.9

AUC of viability dose-response curve
Details	NOMO1	P12-Ichikawa [3]	SEM cells [4]
HPLM + 10% dialyzed FBS	446	457	348
RPMI 5 mM glucose + 10% FBS	412	447	317
RPMI 5 mM glucose + 10% dialyzed FBS	443	438	314

C[C@H]1O[C@H](O[C@H]2[C@H](O)[C@@H](O)[C@H](O[C@@H]2CO)O[C@H]3[C@H](O)[C@@H](O)C(O)O[C@@H]3CO)[C@H](O)[C@@H](O)[C@@H]1N[C@H]4\C=C(CO)/[C@@H](O)[C@H](O)[C@H]4O (some centres undefined)
AUC of viability dose-response curve
Details	NOMO1	P12-Ichikawa [3]	SEM cells [4]
HPLM + 10% dialyzed FBS	330	321	437
RPMI 5 mM glucose + 10% FBS	309	335	456
RPMI 5 mM glucose + 10% dialyzed FBS	319	374	432

COc1cc(C(C)C)c(Oc2cnc(NC(CO)CO)nc2N)cc1I
AUC of viability dose-response curve
Details	NOMO1	P12-Ichikawa [3]	SEM cells [4]
HPLM + 10% dialyzed FBS	468	464	458
RPMI 5 mM glucose + 10% FBS	436	466	442
RPMI 5 mM glucose + 10% dialyzed FBS	457	452	453

CNC(=O)c1ccccc1Nc1nc(Nc2ccc(N3CCOCC3)cc2OC)ncc1Cl
AUC of viability dose-response curve
Details	NOMO1	P12-Ichikawa [3]	SEM cells [4]
HPLM + 10% dialyzed FBS	387	408	349
RPMI 5 mM glucose + 10% FBS	397	404	332
RPMI 5 mM glucose + 10% dialyzed FBS	377	416	337

CN(C)CCN(C)CCc1ccc(Cl)c(Cl)c1
cell viability [%], SEM cells [2]
Details	HPLM + 10% dialyzed FBS	RPMI 5 mM glucose + 10% FBS
0.000781 µM	118	123
0.00234 µM	114	101
0.00702 µM	132	121
0.0211 µM	131	125
0.0632 µM	128	124
0.19 µM	131	133
0.569 µM	127	145
1.71 µM	119	132
5.12 µM	122	127
15.4 µM	114	131
46.1 µM	114	126

AUC of viability dose-response curve
Details	NOMO1	P12-Ichikawa [3]	SEM cells [4]
HPLM + 10% dialyzed FBS	473	467	466
RPMI 5 mM glucose + 10% FBS	473	465	458
RPMI 5 mM glucose + 10% dialyzed FBS	473	466	451

Cc1c(C(=O)Nc2ccc(N3C[C@@H](C)O[C@@H](C)C3)nc2)cccc1-c1ccc(OC(F)(F)F)cc1
Details	cell viability [%]
P12-Ichikawa [1], RPMI 5 mM glucose + 10% dialyzed FBS, 0.000781 µM	128
P12-Ichikawa [1], RPMI 5 mM glucose + 10% dialyzed FBS, 0.00234 µM	119
P12-Ichikawa [1], RPMI 5 mM glucose + 10% dialyzed FBS, 0.00702 µM	119
P12-Ichikawa [1], RPMI 5 mM glucose + 10% dialyzed FBS, 0.0211 µM	131
P12-Ichikawa [1], RPMI 5 mM glucose + 10% dialyzed FBS, 0.0632 µM	131
P12-Ichikawa [1], RPMI 5 mM glucose + 10% dialyzed FBS, 0.19 µM	126
P12-Ichikawa [1], RPMI 5 mM glucose + 10% dialyzed FBS, 0.569 µM	124
P12-Ichikawa [1], RPMI 5 mM glucose + 10% dialyzed FBS, 1.71 µM	104
P12-Ichikawa [1], RPMI 5 mM glucose + 10% dialyzed FBS, 5.12 µM	48.6
P12-Ichikawa [1], RPMI 5 mM glucose + 10% dialyzed FBS, 15.4 µM	7.92
P12-Ichikawa [1], RPMI 5 mM glucose + 10% dialyzed FBS, 46.1 µM	6.12
SEM cells [2], HPLM + 10% dialyzed FBS, 0.000781 µM	113
SEM cells [2], HPLM + 10% dialyzed FBS, 0.00234 µM	125
SEM cells [2], HPLM + 10% dialyzed FBS, 0.00702 µM	116
SEM cells [2], HPLM + 10% dialyzed FBS, 0.0211 µM	133
SEM cells [2], HPLM + 10% dialyzed FBS, 0.0632 µM	131
SEM cells [2], HPLM + 10% dialyzed FBS, 0.19 µM	124
SEM cells [2], HPLM + 10% dialyzed FBS, 0.569 µM	132
SEM cells [2], HPLM + 10% dialyzed FBS, 1.71 µM	108
SEM cells [2], HPLM + 10% dialyzed FBS, 5.12 µM	16.3
SEM cells [2], HPLM + 10% dialyzed FBS, 15.4 µM	6.58
SEM cells [2], HPLM + 10% dialyzed FBS, 46.1 µM	4.61

AUC of viability dose-response curve
Details	NOMO1	P12-Ichikawa [3]	SEM cells [4]
HPLM + 10% dialyzed FBS	366	349	361
RPMI 5 mM glucose + 10% FBS	382	372	335
RPMI 5 mM glucose + 10% dialyzed FBS	408	372	356

COc1ccc(N(C(=O)Oc2c(C)cccc2C)c2ccnc(Nc3ccc(N4CCN(C)CC4)cc3)n2)c(OC)c1
AUC of viability dose-response curve
Details	HPLM + 10% dialyzed FBS	RPMI 5 mM glucose + 10% FBS	RPMI 5 mM glucose + 10% dialyzed FBS
P12-Ichikawa [3]	466	457	459
SEM cells [4]	456	455	451

O=C(O)c1ccc2cc(-c3ccc(O)c(C45CC6CC(CC(C6)C4)C5)c3)ccc2c1
cell viability [%]
Details	P12-Ichikawa [1]	SEM cells [2]
HPLM + 10% dialyzed FBS, 0.000781 µM	124	–
HPLM + 10% dialyzed FBS, 0.00234 µM	119	–
HPLM + 10% dialyzed FBS, 0.00702 µM	124	–
HPLM + 10% dialyzed FBS, 0.0211 µM	121	–
HPLM + 10% dialyzed FBS, 0.0632 µM	121	–
HPLM + 10% dialyzed FBS, 0.19 µM	107	–
HPLM + 10% dialyzed FBS, 0.569 µM	66.5	–
HPLM + 10% dialyzed FBS, 1.71 µM	19.2	–
HPLM + 10% dialyzed FBS, 5.12 µM	10.4	–
HPLM + 10% dialyzed FBS, 15.4 µM	9.2	–
HPLM + 10% dialyzed FBS, 46.1 µM	7.25	–
RPMI 5 mM glucose + 10% FBS, 0.000781 µM	116	120
RPMI 5 mM glucose + 10% FBS, 0.00234 µM	123	129
RPMI 5 mM glucose + 10% FBS, 0.00702 µM	134	114
RPMI 5 mM glucose + 10% FBS, 0.0211 µM	122	118
RPMI 5 mM glucose + 10% FBS, 0.0632 µM	117	118
RPMI 5 mM glucose + 10% FBS, 0.19 µM	96.9	93.1
RPMI 5 mM glucose + 10% FBS, 0.569 µM	57.1	41.7
RPMI 5 mM glucose + 10% FBS, 1.71 µM	16	19.8
RPMI 5 mM glucose + 10% FBS, 5.12 µM	8.71	10.5
RPMI 5 mM glucose + 10% FBS, 15.4 µM	8.22	9.46
RPMI 5 mM glucose + 10% FBS, 46.1 µM	5.78	8.21

AUC of viability dose-response curve
Details	NOMO1	P12-Ichikawa [3]	SEM cells [4]
HPLM + 10% dialyzed FBS	323	299	287
RPMI 5 mM glucose + 10% FBS	330	285	282
RPMI 5 mM glucose + 10% dialyzed FBS	311	277	266
